Assay results: PMC5328913 (Redox Biology, 2017)

Target: T1, L-galactono-1,4-lactone dehydrogenase (GalLDH) from pepper fruits (Capsicum annuum, UniProt Q6QD76)
T1 sequence (Q6QD76 38-586): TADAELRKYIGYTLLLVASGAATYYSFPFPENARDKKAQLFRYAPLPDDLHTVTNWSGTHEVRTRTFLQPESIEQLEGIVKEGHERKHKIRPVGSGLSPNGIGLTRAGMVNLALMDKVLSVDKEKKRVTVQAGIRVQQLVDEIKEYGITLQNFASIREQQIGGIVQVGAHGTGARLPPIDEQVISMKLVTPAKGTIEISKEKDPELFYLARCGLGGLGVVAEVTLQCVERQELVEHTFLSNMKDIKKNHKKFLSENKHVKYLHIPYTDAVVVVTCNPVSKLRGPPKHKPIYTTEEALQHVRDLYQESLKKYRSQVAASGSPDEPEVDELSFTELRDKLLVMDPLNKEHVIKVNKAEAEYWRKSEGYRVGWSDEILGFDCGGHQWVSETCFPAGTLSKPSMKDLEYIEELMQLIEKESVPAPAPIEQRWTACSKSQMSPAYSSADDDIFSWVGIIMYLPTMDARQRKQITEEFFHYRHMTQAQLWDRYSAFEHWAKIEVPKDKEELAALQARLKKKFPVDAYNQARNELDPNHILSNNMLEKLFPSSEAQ
Test: spectrophotometric cytochrome c reduction at […] nm
Assay type: biochemical
Conditions: read-out: % inhibition at 0.5 mM and 2 mM

For `N[C@@H](CCC(=O)N[C@@H](CS)C(=O)NCC(=O)O)C(=O)O` [GSH, reduced glutathione], the inhibition at 500 µM was 60%.
